# Source: patent US10765114B2, “4-amino-6-(pyridyl and 2-substitutedphenyl)-picolinates and 6-amino-2-(pyridyl and 2-substitutedphenyl)-pyrimidine-4-carboxylates and their use as herbicides” (Dow AgroSciences LLC, priority 2013, dated 2020)
# Test system: Key Grass and Sedge Weeds as well as Grass Crops
# Experiment: Post-Emergent Test II (Table 6)
# Type: in vivo
# Conditions: post-emergence, 336 h, CYPSS, 70 g ai/ha, 14 days after application, read-out: Visual Growth Reduction (%) 14 Days After Application CYPSS
# In short: (§1)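 Visual injury ratings (0 = no injury, 100 = complete kill) were taken 14 days after treatment relative to untreated plants. Seedlings at the first or second true leaf stage received an overhead spray at 187 L/ha, and solvent-blank sprayed plants served as controls.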
row,SMILES,pest or weed control at 70 g/ha [%]
1,COC(=O)c1nc(-c2cccnc2)c(F)c(N)c1Cl [Compound 50],0 to 29

# Same assay, conditions: post-emergence, 336 h, CYPSS, 140 g ai/ha, 14 days after application, read-out: Visual Growth Reduction (%) 14 Days After Application CYPSS
row,SMILES,pest or weed control at 140 g/ha [%]
1,COC(=O)c1nc(-c2cccnc2)c(F)c(N)c1Cl [Compound 50],0 to 29

# Same assay, conditions: post-emergence, 336 h, DIGSA: crabgrass (Digitaria sanguinalis), 70 g ai/ha, 14 days after application, read-out: Visual Growth Reduction (%) 14 Days After Application DIGSA
row,SMILES,pest or weed control at 70 g/ha [%]
1,COC(=O)c1nc(-c2cccnc2)c(F)c(N)c1Cl [Compound 50],0 to 29

# Same assay, conditions: post-emergence, 336 h, DIGSA: crabgrass (Digitaria sanguinalis), 140 g ai/ha, 14 days after application, read-out: Visual Growth Reduction (%) 14 Days After Application DIGSA
row,SMILES,pest or weed control at 140 g/ha [%]
1,COC(=O)c1nc(-c2cccnc2)c(F)c(N)c1Cl [Compound 50],0 to 29

# Same assay, conditions: post-emergence, 336 h, ECHSS, 70 g ai/ha, 14 days after application, read-out: Visual Growth Reduction (%) 14 Days After Application ECHSS
row,SMILES,pest or weed control at 70 g/ha [%]
1,COC(=O)c1nc(-c2cccnc2)c(F)c(N)c1Cl [Compound 50],0 to 29

# Same assay, conditions: post-emergence, 336 h, ECHSS, 140 g ai/ha, 14 days after application, read-out: Visual Growth Reduction (%) 14 Days After Application ECHSS
row,SMILES,pest or weed control at 140 g/ha [%]
1,COC(=O)c1nc(-c2cccnc2)c(F)c(N)c1Cl [Compound 50],0 to 29

# Same assay, conditions: post-emergence, 336 h, ORYSS (crop), 70 g ai/ha, 14 days after application, read-out: Visual Growth Reduction (%) 14 Days After Application ORYSS
row,SMILES,pest or weed control at 70 g/ha [%]
1,COC(=O)c1nc(-c2cccnc2)c(F)c(N)c1Cl [Compound 50],0 to 29

# Same assay, conditions: post-emergence, 336 h, ORYSS (crop), 140 g ai/ha, 14 days after application, read-out: Visual Growth Reduction (%) 14 Days After Application ORYSS
row,SMILES,pest or weed control at 140 g/ha [%]
1,COC(=O)c1nc(-c2cccnc2)c(F)c(N)c1Cl [Compound 50],0 to 29

# Same assay, conditions: post-emergence, 336 h, SETFA: giant foxtail (Setaria faberi), 140 g ai/ha, 14 days after application, read-out: Visual Growth Reduction (%) 14 Days After Application SETFA
row,SMILES,pest or weed control at 140 g/ha [%]
1,COC(=O)c1nc(-c2cccnc2)c(F)c(N)c1Cl [Compound 50],60 to 74

# Same assay, conditions: post-emergence, 336 h, SORVU: grain sorghum (Sorghum vulgare), 70 g ai/ha, 14 days after application, read-out: Visual Growth Reduction (%) 14 Days After Application SORVU
row,SMILES,pest or weed control at 70 g/ha [%]
1,COC(=O)c1nc(-c2cccnc2)c(F)c(N)c1Cl [Compound 50],0 to 29

# Same assay, conditions: post-emergence, 336 h, SORVU: grain sorghum (Sorghum vulgare), 140 g ai/ha, 14 days after application, read-out: Visual Growth Reduction (%) 14 Days After Application SORVU
row,SMILES,pest or weed control at 140 g/ha [%]
1,COC(=O)c1nc(-c2cccnc2)c(F)c(N)c1Cl [Compound 50],0 to 29

# Same assay, conditions: post-emergence, 336 h, TRZSS (crop), 70 g ai/ha, 14 days after application, read-out: Visual Growth Reduction (%) 14 Days After Application TRZSS
row,SMILES,pest or weed control at 70 g/ha [%]
1,COC(=O)c1nc(-c2cccnc2)c(F)c(N)c1Cl [Compound 50],0 to 29

# Same assay, conditions: post-emergence, 336 h, TRZSS (crop), 140 g ai/ha, 14 days after application, read-out: Visual Growth Reduction (%) 14 Days After Application TRZSS
row,SMILES,pest or weed control at 140 g/ha [%]
1,COC(=O)c1nc(-c2cccnc2)c(F)c(N)c1Cl [Compound 50],0 to 29

# Same assay, conditions: post-emergence, 336 h, ZEAMX: maize, corn (Zea mays), 70 g ai/ha, 14 days after application, read-out: Visual Growth Reduction (%) 14 Days After Application ZEAMX
row,SMILES,pest or weed control at 70 g/ha [%]
1,COC(=O)c1nc(-c2cccnc2)c(F)c(N)c1Cl [Compound 50],0 to 29

# Same assay, conditions: post-emergence, 336 h, ZEAMX: maize, corn (Zea mays), 140 g ai/ha, 14 days after application, read-out: Visual Growth Reduction (%) 14 Days After Application ZEAMX
row,SMILES,pest or weed control at 140 g/ha [%]
1,COC(=O)c1nc(-c2cccnc2)c(F)c(N)c1Cl [Compound 50],0 to 29

# Test system: Key Broadleaf Weed and Crop Species
# Experiment: Post-Emergent Test II (Table 5)
# Type: in vivo
# Conditions: Abutilon theophrasti, post-emergence, 336 h, ABUTH: velvetleaf (Abutilon theophrasti), application rate 70 (kg ai/ha; footnote: g ai/ha), read-out: Visual Growth Reduction (%) 14 Days After Application ABUTH
# In short: as §1
row,SMILES,pest or weed control at 70 g/ha [%]
1,COC(=O)c1nc(-c2cccnc2)c(F)c(N)c1Cl [Compound 50],0 to 29

# Same assay, conditions: Abutilon theophrasti, post-emergence, 336 h, ABUTH: velvetleaf (Abutilon theophrasti), application rate 140 (kg ai/ha; footnote: g ai/ha), read-out: Visual Growth Reduction (%) 14 Days After Application ABUTH
row,SMILES,pest or weed control at 140 g/ha [%]
1,COC(=O)c1nc(-c2cccnc2)c(F)c(N)c1Cl [Compound 50],0 to 29

# Same assay, conditions: Amaranthus retroflexus, post-emergence, 336 h, AMARE: redroot pigweed (Amaranthus retroflexus), application rate 70 (kg ai/ha; footnote: g ai/ha), read-out: Visual Growth Reduction (%) 14 Days After Application AMARE
row,SMILES,pest or weed control at 70 g/ha [%]
1,COC(=O)c1nc(-c2cccnc2)c(F)c(N)c1Cl [Compound 50],0 to 29

# Same assay, conditions: Amaranthus retroflexus, post-emergence, 336 h, AMARE: redroot pigweed (Amaranthus retroflexus), application rate 140 (kg ai/ha; footnote: g ai/ha), read-out: Visual Growth Reduction (%) 14 Days After Application AMARE
row,SMILES,pest or weed control at 140 g/ha [%]
1,COC(=O)c1nc(-c2cccnc2)c(F)c(N)c1Cl [Compound 50],95 to 100

# Same assay, conditions: Brassica napus, post-emergence, 336 h, BRSSS: oilseed rape, canola (Brassica napus), application rate 70 (kg ai/ha; footnote: g ai/ha), read-out: Visual Growth Reduction (%) 14 Days After Application BRSSS
row,SMILES,pest or weed control at 70 g/ha [%]
1,COC(=O)c1nc(-c2cccnc2)c(F)c(N)c1Cl [Compound 50],0 to 29

# Same assay, conditions: Brassica napus, post-emergence, 336 h, BRSSS: oilseed rape, canola (Brassica napus), application rate 140 (kg ai/ha; footnote: g ai/ha), read-out: Visual Growth Reduction (%) 14 Days After Application BRSSS
row,SMILES,pest or weed control at 140 g/ha [%]
1,COC(=O)c1nc(-c2cccnc2)c(F)c(N)c1Cl [Compound 50],30 to 44

# Same assay, conditions: Chenopodium album, post-emergence, 336 h, CHEAL: lambsquarters (Chenopodium album), application rate 70 (kg ai/ha; footnote: g ai/ha), read-out: Visual Growth Reduction (%) 14 Days After Application CHEAL
row,SMILES,pest or weed control at 70 g/ha [%]
1,COC(=O)c1nc(-c2cccnc2)c(F)c(N)c1Cl [Compound 50],75 to 84

# Same assay, conditions: Chenopodium album, post-emergence, 336 h, CHEAL: lambsquarters (Chenopodium album), application rate 140 (kg ai/ha; footnote: g ai/ha), read-out: Visual Growth Reduction (%) 14 Days After Application CHEAL
row,SMILES,pest or weed control at 140 g/ha [%]
1,COC(=O)c1nc(-c2cccnc2)c(F)c(N)c1Cl [Compound 50],85 to 94

# Same assay, conditions: Euphorbia heterophylla, post-emergence, 336 h, EPHHL: wild poinsettia (Euphorbia heterophylla), application rate 70 (kg ai/ha; footnote: g ai/ha), read-out: Visual Growth Reduction (%) 14 Days After Application EPHHL
row,SMILES,pest or weed control at 70 g/ha [%]
1,COC(=O)c1nc(-c2cccnc2)c(F)c(N)c1Cl [Compound 50],0 to 29

# Same assay, conditions: Euphorbia heterophylla, post-emergence, 336 h, EPHHL: wild poinsettia (Euphorbia heterophylla), application rate 140 (kg ai/ha; footnote: g ai/ha), read-out: Visual Growth Reduction (%) 14 Days After Application EPHHL
row,SMILES,pest or weed control at 140 g/ha [%]
1,COC(=O)c1nc(-c2cccnc2)c(F)c(N)c1Cl [Compound 50],0 to 29

# Same assay, conditions: Helianthus annuus, post-emergence, 336 h, HELAN: sunflower (Helianthus annuus), application rate 70 (kg ai/ha; footnote: g ai/ha), read-out: Visual Growth Reduction (%) 14 Days After Application HELAN
row,SMILES,pest or weed control at 70 g/ha [%]
1,COC(=O)c1nc(-c2cccnc2)c(F)c(N)c1Cl [Compound 50],85 to 94

# Same assay, conditions: Helianthus annuus, post-emergence, 336 h, HELAN: sunflower (Helianthus annuus), application rate 140 (kg ai/ha; footnote: g ai/ha), read-out: Visual Growth Reduction (%) 14 Days After Application HELAN
row,SMILES,pest or weed control at 140 g/ha [%]
1,COC(=O)c1nc(-c2cccnc2)c(F)c(N)c1Cl [Compound 50],85 to 94

# Same assay, conditions: Viola tricolor, post-emergence, 336 h, VIOTR: wild pansy (Viola tricolor), application rate 70 (kg ai/ha; footnote: g ai/ha), read-out: Visual Growth Reduction (%) 14 Days After Application VIOTR
row,SMILES,pest or weed control at 70 g/ha [%]
1,COC(=O)c1nc(-c2cccnc2)c(F)c(N)c1Cl [Compound 50],0 to 29

# Same assay, conditions: Viola tricolor, post-emergence, 336 h, VIOTR: wild pansy (Viola tricolor), application rate 140 (kg ai/ha; footnote: g ai/ha), read-out: Visual Growth Reduction (%) 14 Days After Application VIOTR
row,SMILES,pest or weed control at 140 g/ha [%]
1,COC(=O)c1nc(-c2cccnc2)c(F)c(N)c1Cl [Compound 50],0 to 29

# Test system: not given
# Experiment: not given
# Conditions: not given
row,melting point [°C],SMILES
1,163 to 164,COC(=O)c1nc(-c2cccnc2)c(F)c(N)c1Cl [Compound 50]
